The values that follow come from PMC8379015, “Resistance of Mycobacterium tuberculosis to indole 4-carboxamides occurs through alterations in drug metabolism and tryptophan biosynthesis” (Cell Chemical Biology, 2021).

Converted amounts (≈) assume the structure as drawn. Read-outs that look alike come from different tables or passages of the source.

One data set has as its system M. tuberculosis H37Rv. The experiment in a line: microbe, parasite or virus in culture. It counts as cell-based. To be noted: Mycobacterium tuberculosis.
The target in another data set is T1, TrpAB WT (Mycobacterium tuberculosis, UniProt P9WFX9+P9WFY1).
T1 construct: His6 (N); made in house; host or cells: E. coli BL21(DE3)
It counts as biochemical.

The target of a further data set is T2, TrpAB α reaction (Mycobacterium tuberculosis, UniProt P9WFX9+P9WFY1).
T2 construct: His6 (N); made in house; host or cells: E. coli BL21(DE3)
The experiment in a line: biochemical.

For another data set, the system named is Mtb. Type of data set: cell-based, Mycobacterium tuberculosis.
In another data set the target is T3, TrpAB β reaction (Mycobacterium tuberculosis, UniProt P9WFX9+P9WFY1).
T3 construct: His6 (N); made in house; host or cells: E. coli BL21(DE3)
The experiment in a line: biochemical. Type of data set: biochemical.

For the next data set, the system named is M. smegmatis mc2155. The experiment in a line: microbe, parasite or virus in culture. It counts as cell-based, Mycobacterium smegmatis. The note with it: for MIC: Mycolicibacterium smegmatis, MC2155, read-out: MIC vs M. smegmatis mc2155.
The target of a further data set is T4, TrpE WT (Mycobacterium tuberculosis, UniProt P9WFX3).
T4 construct: His6 (N); made in house; host or cells: E. coli BL21(DE3)
T4 sequence (P9WFX3 1-516): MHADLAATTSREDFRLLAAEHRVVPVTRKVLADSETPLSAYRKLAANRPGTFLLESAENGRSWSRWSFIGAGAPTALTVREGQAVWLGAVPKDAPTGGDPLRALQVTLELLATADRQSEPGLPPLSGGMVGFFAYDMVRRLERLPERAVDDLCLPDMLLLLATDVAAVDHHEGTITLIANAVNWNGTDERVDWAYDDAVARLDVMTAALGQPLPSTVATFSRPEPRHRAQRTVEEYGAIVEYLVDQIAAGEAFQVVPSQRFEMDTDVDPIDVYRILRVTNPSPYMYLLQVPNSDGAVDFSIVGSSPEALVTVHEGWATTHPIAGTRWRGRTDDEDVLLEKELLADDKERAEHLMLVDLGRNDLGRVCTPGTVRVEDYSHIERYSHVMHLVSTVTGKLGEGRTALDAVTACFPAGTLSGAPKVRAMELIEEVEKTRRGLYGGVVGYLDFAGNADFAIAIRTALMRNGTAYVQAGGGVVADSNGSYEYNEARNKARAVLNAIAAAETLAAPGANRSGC
Type of data set: biochemical.

Data set [1] relates to intracellular Mtb H37Rv in J774 macrophages. Type of data set: cell-based, Mycobacterium tuberculosis.
The test system of a further data set is J774 macrophages. The note with it: 24 hrs, CellTiter-Glo.
For another data set, the system named is TrpE. Further details: method as in Negatu et al., 2019. To be noted: ref Negatu et al., 2019; read-out: IC50 TrpE (allosteric inhibition); cited from earlier work.
For the next data set, the system named is M. bovis BCG. The experiment in a line: microbe, parasite or virus in culture. Type of data set: cell-based, Mycobacterium bovis BCG.

T3 sequence (P9WFX9 whole entry): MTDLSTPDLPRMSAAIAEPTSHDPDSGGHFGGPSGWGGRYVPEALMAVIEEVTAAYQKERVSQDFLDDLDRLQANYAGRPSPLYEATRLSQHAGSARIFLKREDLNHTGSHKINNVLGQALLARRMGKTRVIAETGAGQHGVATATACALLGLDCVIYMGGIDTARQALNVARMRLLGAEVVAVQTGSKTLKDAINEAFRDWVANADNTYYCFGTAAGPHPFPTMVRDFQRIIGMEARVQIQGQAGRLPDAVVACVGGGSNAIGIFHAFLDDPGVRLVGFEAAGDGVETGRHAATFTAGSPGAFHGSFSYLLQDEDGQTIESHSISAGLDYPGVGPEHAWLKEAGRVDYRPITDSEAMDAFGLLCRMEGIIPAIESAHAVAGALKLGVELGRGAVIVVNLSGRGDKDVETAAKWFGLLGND
T3 sequence (P9WFY1 whole entry): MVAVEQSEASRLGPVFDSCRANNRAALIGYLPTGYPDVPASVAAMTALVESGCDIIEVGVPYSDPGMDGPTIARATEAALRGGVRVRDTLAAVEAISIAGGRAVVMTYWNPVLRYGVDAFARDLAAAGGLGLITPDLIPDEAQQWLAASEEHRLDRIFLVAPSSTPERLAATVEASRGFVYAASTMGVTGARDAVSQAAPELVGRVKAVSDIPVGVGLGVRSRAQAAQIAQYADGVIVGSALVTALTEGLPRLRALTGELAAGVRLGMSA
T2 sequence (P9WFX9 whole entry): as the sequence (P9WFX9 whole entry) above
T2 sequence (P9WFY1 whole entry): as the sequence (P9WFY1 whole entry) above
T1 sequence (P9WFX9 whole entry): as the sequence (P9WFX9 whole entry) above
T1 sequence (P9WFY1 whole entry): as the sequence (P9WFY1 whole entry) above

Consider `O=C(Nc1cccc2[nH]ccc12)c1ccc(OCC(F)(F)F)nn1` [C16, N-(1H-indol-4-yl)-6-(2,2,2-trifluoroethoxy)pyridazine-3-carboxamide], for which the MIC with M. tuberculosis H37Rv (read-out: MIC) came to 2.3 µM (≈ 0.773 µg/mL).
Consider `O=C(Nc1ccnc2[nH]ccc12)c1ccc(OCC(F)(F)F)cn1` [C15, N-(1H-pyrrolo[2,3-b]pyridin-4-yl)-5-(2,2,2-trifluoroethoxy)picolinamide], for which, in the data set on M. tuberculosis H37Rv (read-out: MIC), the MIC came to 50 µM (≈ 16.8 µg/mL).
As to `O=C(Nc1ccc2cc[nH]c2c1)c1ccc(OCC(F)(F)F)nc1` [C7, N-(1H-indol-6-yl)-6-(2,2,2-trifluoroethoxy)nicotinamide], the MIC against M. tuberculosis H37Rv turned out to be 50 µM (≈ 16.8 µg/mL).
As usually defined, the Km is the substrate concentration at which the rate is half of its maximum. Regarding `O=P(O)(O)OC[C@@H](O)[C@H](O)c1c[nH]c2ccccc12` [IGP, indole-3-glycerol phosphate], the Km at TrpAB WT (read-out: apparent KM IGP) was determined as 76.9 ± 1.1 µM.
Take `O=C(O)COc1ccccc1` [C2-COOH, 2-phenoxyacetic acid]: the MIC against M. tuberculosis H37Rv was > 100 µM.
A word on the IC50: it is the concentration that gives 50% inhibition. In the case of `CNS(=O)(=O)c1ccc2c(c1)CCN2C(=O)c1ccc(C)s1` [C5, reference compound], the MIC in the data set on M. tuberculosis H37Rv (read-out: MIC) turned out to be 0.39 µM (≈ 0.131 µg/mL). Further, the concentration for half-maximal inhibition (IC50) came out at 0.1 ± 0.06 µM at TrpAB α reaction and 0.37 ± 0.07 µM at TrpAB β reaction. In addition, the “potency with exogenous indole or L-Trp” value in the data set on Mtb is “significantly attenuated”.
In the case of `Nc1cccc2[nH]ccc12` [4-AI, 4-aminoindole, reference compound], the MIC with M. tuberculosis H37Rv and in the data set with M. tuberculosis H37Rv (read-out: MIC against Mtb) was 4.68 µM (≈ 0.619 µg/mL) each time. Further, the results for the IC50 against TrpAB α reaction and on TrpAB β reaction were 631 ± 174 µM and 649.4 ± 2.5 µM, respectively. Besides, the “increase of MIC on supplementation” value with Mtb is 4- to 16 fold.
`O=C(Nc1cccc2[nH]ccc12)c1ccc(OCC(F)(F)F)cn1` [C4, N-(1H-indol-4-yl)-5-(2,2,2-trifluoroethoxy)picolinamide]: the MIC in the data set with M. smegmatis mc2155 is > 100 µM.
With “N-(1H-indol-4-yl)-6-(2,2,2-trifluoroethoxy)nicotinamide [C1]”, the IC50 against TrpE WT came to 242 ± 53 µM. Moreover, in [1], the “reduction in intracellular Mtb titer” value is on record as 1.5 log. The “toxicity to J774 macrophages” value with J774 macrophages is reported as “not toxic”. Further, the “MIC vs M. smegmatis mc2155” value against M. smegmatis mc2155 was > 100 µM.
Take `O=C(Nc1ccc(OCC(F)(F)F)nc1)c1cccc2[nH]ccc12` [C11, N-(6-(2,2,2-trifluoroethoxy)pyridine-3-yl)-1H-indole-4-carboxamide]: the MIC with M. tuberculosis H37Rv was determined as 50 µM (≈ 16.8 µg/mL).
In turn, `FC(F)(F)COc1ccc(CNc2cccc3[nH]ccc23)cn1` [C10, N-((6-(2,2,2-trifluoroethoxy)pyridin-3-yl)methyl)-1H-indol-4-amine] displayed an MIC against M. tuberculosis H37Rv of 50 µM (≈ 16.1 µg/mL).
Still for that read-out and setting: to `Cn1ccc2c(NC(=O)c3ccc(OCC(F)(F)F)nc3)cccc21` [C9, N-(1-methyl-1H-indol-4-yl)-6-(2,2,2-trifluoroethoxy)nicotinamide] belongs 50 µM (≈ 17.5 µg/mL); to `O=C(Nc1ccc2[nH]ccc2c1)c1ccc(OCC(F)(F)F)nc1` [C6, N-(1H-indol-5-yl)-6-(2,2,2-trifluoroethoxy)nicotinamide], 50 µM (≈ 16.8 µg/mL).
Consider `N[C@@H](Cc1c[nH]c2ccc(F)cc12)C(=O)O` [5-fluorotryptophan], for which the IC50 with TrpE is 4 µM.
As to `O=C(O)c1ccc(OCC(F)(F)F)nc1` [C1-COOH, 6-(2,2,2-trifluoroethoxy)nicotinic acid], the MIC against M. tuberculosis H37Rv was found to be 50 µM (≈ 11.1 µg/mL).
On to `CN(C(=O)c1ccc(OCC(F)(F)F)nc1)c1cccc2[nH]ccc12` [C13, N-(1H-indol-4-yl)-N-methyl-6-(2,2,2-trifluoroethoxy)nicotinamide], for which, in the data set on M. tuberculosis H37Rv (read-out: MIC), the MIC came to 25 µM (≈ 8.73 µg/mL).
For the compound `Cc1ccc(C(=O)Nc2cccc3[nH]ccc23)o1` [C21, N-(1H-indol-4-yl)-5-methylfuran-2-carboxamide], the MIC in the data set with M. tuberculosis H37Rv (read-out: MIC) came to 6.25 µM (≈ 1.5 µg/mL).
In the data set with M. tuberculosis H37Rv, `O=C(Nc1cccc2cc[nH]c12)c1ccc(OCC(F)(F)F)nc1` [C8, N-(1H-indol-7-yl)-6-(2,2,2-trifluoroethoxy)nicotinamide] registered an MIC of 9.4 µM (≈ 3.15 µg/mL).
As to `O=C(COc1ccccc1)Nc1cccc2[nH]ccc12` [C2, N-(1H-indol-4-yl)-2-phenoxyacetamide], the MIC in the data set on M. smegmatis mc2155 is > 100 µM.
As to `O=C(Nc1cccc2[nH]ccc12)[C@H]1C[C@@H](Oc2ccccc2)C1` [C19, (1s,3s)-N-(1H-indol-4-yl)-3-phenoxycyclobutane-1-carboxamide], the MIC in the data set with M. tuberculosis H37Rv (read-out: MIC) was found to be 3.13 µM (≈ 0.959 µg/mL).
For the compound `O=C(O)c1ccc(OCC(F)(F)F)cn1` [C4-COOH, 5-(2,2,2-trifluoroethoxy)picolinic acid], the MIC against M. tuberculosis H37Rv is > 100 µM.
As to `NNC(=O)c1ccncc1` [INH, isoniazid, reference compound], in the data set with M. tuberculosis H37Rv (read-out: MIC), the MIC turned out to be 0.16 µM (≈ 0.0219 µg/mL).
As to `O=C(Nc1cccc2[nH]ccc12)C1CCCCC1` [C3, N-(1H-indol-4-yl)cyclohexanecarboxamide], the MIC in the data set on M. tuberculosis H37Rv (read-out: MIC) was 12.5 µM (≈ 3.03 µg/mL); in the data set with M. bovis BCG (Mycobacterium tuberculosis variant bovis BCG, BCG, read-out: MIC vs M. bovis BCG), > 100 µM; in the data set with M. smegmatis mc2155, > 100 µM. For the same compound, the “MIC vs M. bovis BCG” value in the data set with M. bovis BCG stood at 50 µM (≈ 12.1 µg/mL).
Turning to `CN(CC(F)(F)F)c1ccc(C(=O)Nc2cccc3[nH]ccc23)cn1` [C20, N-(1H-indol-4-yl)-6-(methyl(2,2,2-trifluoroethyl)amino)nicotinamide], the MIC with M. tuberculosis H37Rv (read-out: MIC) was 4.7 µM (≈ 1.64 µg/mL).
In the case of `N[C@@H](CO)C(=O)O` [L-Ser, L-serine], the Km at TrpAB WT (read-out: apparent KM L-Ser) came out at 550 ± 230 µM; at TrpAB β reaction (read-out: KM L-Ser of TrpAB β-half reaction), 2.9 ± 0.3 mM.
Turning to `Nc1cccc2[nH]cc(C[C@H](N)C(=O)O)c12` [4-aTrp, 4-amino-L-tryptophan], the MIC in the data set on M. tuberculosis H37Rv (read-out: MIC against Mtb) is > 100 µM.
`O=C(Nc1cccc2c1CCN2)c1ccc(OCC(F)(F)F)nc1` [C12, N-(indolin-4-yl)-6-(2,2,2-trifluoroethoxy)nicotinamide] showed an MIC in the data set with M. tuberculosis H37Rv of 50 µM (≈ 16.9 µg/mL).
For the compound `O=C(COCC1CC1)Nc1cccc2[nH]ccc12` [C18, 2-(cyclopropylmethoxy)-N-(1H-indol-4-yl)acetamide], the MIC in the data set on M. tuberculosis H37Rv (read-out: MIC) came to 3.13 µM (≈ 0.765 µg/mL).
As to `O=C(Nc1cccc2[nH]cnc12)c1ccc(OCC(F)(F)F)cn1` [C14, N-(1H-benzo[d]imidazol-4-yl)-5-(2,2,2-trifluoroethoxy)picolinamide], the MIC in the data set with M. tuberculosis H37Rv (read-out: MIC) was 50 µM (≈ 16.8 µg/mL).
For the compound `Cc1ccc(OCC(=O)Nc2cccc3[nH]ccc23)cc1` [C17, N-(1H-indol-4-yl)-2-(p-tolyloxy)acetamide], the MIC with M. tuberculosis H37Rv (read-out: MIC) is 1.56 µM (≈ 0.437 µg/mL).
As to `O=C(O)C1CCCCC1` [C3-COOH, cyclohexanecarboxylic acid], in the data set with M. tuberculosis H37Rv, the MIC is > 100 µM.
